Experimental data taken from patent EP1140895B1, “THIOPYRAN COMPOUNDS AS INHIBITORS OF MMP” (FUJISAWA PHARMACEUTICAL CO., LTD., priority 1999, dated 2000).

Biological target: T1, human MMP-13 (Homo sapiens, UniProt P45452)
T1 construct: truncated form of human recombinant MMP-13; purchased Chondrex, USA
Assay: Inhibitory activity of human MMP-13
Assay type: biochemical
Details: commercial kit, truncated form of human recombinant MMP-13, fluorogenic peptide substrate, 1 hour at 35°C
Experimental: The inhibitory potential of test compounds against human MMP-13 were assayed by using commercial kit (Chondrex, USA) contained truncated form of human recombinant MMP-13 and fluorogenic peptide substrate. Activity of human MMP-13 was determined by monitoring the degradation of fluorogenic peptide substrate after incubation for 1 hour at 35°C and estimated by measuring the fluorescence intensity of degraded peptide substrate at 495 nm (excitation) and 520 nm (emission).
Inhibitory activity of human MMP-13 as mentioned above.

IC50: 2.2 nM
Compound: O=C(CC1(c2ccc(Oc3ccc(Cl)cc3)cc2)CCCCS1(=O)=O)NO (single isomer, unassigned) [Example 15, (R or S)-(-)-2-[4-(4-chlorophenoxy)phenyl]-3,4,5,6-tetrahydro-N-hydroxy-2H-thiopyran-2-acetamide 1,1-dioxide]
